From patent US20250144067A1, “PERSONALIZED STARVATION THERAPY FOR CANCER” (Faeth Therapeutics, Inc., priority 2021, published 2025)
Counter-ions that a name gives are not always drawn. Like-named read-outs stand apart in the source and are kept apart here.

Experiments:
[1] = tested on: NCI-H292 lung cancer cells; experiment: FDA drug screening, complete media vs cholesterol-free media without statin (TABLE 1); type: cell-based, human
[2] = tested on: NCI-H292 lung cancer cells; experiment: FDA drug screening, complete media vs cholesterol-free media with simvastatin (TABLE 2); type: cell-based, human
[3] = NCI-H292 cells, cholesterol-free media without statin
[4] = NCI-H292 cells, cholesterol-free media with simvastatin 0.04 μM, cell growth value in FDA drug screen
[5] = NCI-H292 cells, complete media, cell growth value in FDA drug screen
[6] = complete media minus cholesterol-free media + simvastatin, >0 enhanced anti-cancer activity, about 0 neutral, <0 antagonist
[7] = Complete minus Cholesterol-free, greater than 0 enhanced anti-cancer activity, about 0 neutral, below 0 antagonists
[8] = NCI-H292 cells in cholesterol-free media without statin
[9] = NCI-H292 cells in complete media
[10] = NCI-H292 cells, FDA library drug in cholesterol-free media with simvastatin 0.04 μM
[11] = NCI-H292 cells, FDA library drug in complete media
[12] = complete media vs cholesterol-free media + simvastatin (0.04 μM), >0 enhanced anti-cancer activity, about 0 neutral, <0 antagonist
[13] = NCI-H292 cells, cholesterol-free media with simvastatin 0.04 μM, FDA drug library screen (TABLE 2)
[14] = NCI-H292 cells, complete media, FDA drug library screen (TABLE 2)
[15] = complete media minus cholesterol-free media + simvastatin (0.04 μM), >0 enhanced anti-cancer activity, about 0 neutral, <0 antagonist
[16] = Complete minus Cholesterol-free, […]
[17] = NCI-H292 cells, FDA drug library screen, cholesterol-free media with simvastatin 0.04 μM
[18] = NCI-H292 cells, FDA drug library screen, complete media
[19] = complete media minus cholesterol-free media + simvastatin, […]
[20] = Complete minus Cholesterol-free, greater than 0 enhanced anti-cancer activity, about 0 neutral, below 0 antagonist
[21] = NCI-H292 cells, FDA drug library screen, cholesterol-free media without statin
[22] = complete vs cholesterol-free media, greater than 0 enhanced anti-cancer activity, about 0 neutral, below 0 antagonists
[23] = NCI-H292 cells, drug in cholesterol-free media with simvastatin 0.04 μM
[24] = NCI-H292 cells, drug in complete media
[25] = NCI-H292 cells, cholesterol-free media without statin, FDA drug library screen
[26] = NCI-H292 cells, complete media, FDA drug library screen
[27] = complete vs cholesterol-free media, >0 enhanced anti-cancer activity, about 0 neutral, <0 antagonist

Q: How did the Difference ([1]; Complete minus Cholesterol-free, >0 enhanced anti-cancer activity, about 0 neutral, <0 antagonist) turn out when `COC1=C(OC)C(=O)C(CCCCCCCCCCO)=C(C)C1=O` [Idebenone] was run?
A: −0.21

Q: What about the Cholesterol-free [1, 3] of the same compound?
A: 1.239

Q: What about the Complete ([1]; NCI-H292 cells, complete media) of the same compound?
A: 1.029

Q: And the “Cholesterol-free media + simvastatin (0.04 μM)” value [2, 4]?
A: 1.049

Q: What about the “Complete Media” value [2, 5] of the same compound?
A: 1.125

Q: What about the Difference [2, 6] of the same compound?
A: 0.08

Q: Which results are given for `COc1ccc(CCNCC(O)COc2cccc(C)c2)cc1OC` (stereo not drawn) [Bevantolol (hydrochloride)]?
A: Difference [1, 7]: −0.52; Cholesterol-free [1, 8]: 1.227; Complete [1, 9]: 0.7079; Cholesterol-free media + simvastatin (0.04 μM) [2, 10]: 1.404; Complete Media [2, 11]: 0.952; Difference [2, 12]: −0.45

Q: Which results are given for `CCCN1CC(c2ccc(S(C)(=O)=O)cc2)=C(c2ccc(C)cc2)C1=O` [Imrecoxib]?
A: Difference [1, 7]: −0.54; Cholesterol-free [1, 8]: 1.763; Complete [1, 9]: 1.221; Cholesterol-free media + simvastatin (0.04 μM) [2, 13]: 1.183; Complete Media [2, 14]: 1.141; Difference [2, 15]: −0.04

Q: How did the Difference [1, 16] turn out when `CCC1(C)CC(=O)NC(=O)C1` [Bemegride] was run?
A: −0.76

Q: What about the Cholesterol-free [1, 8] of the same compound?
A: 1.658

Q: What about the Complete [1, 9] of the same compound?
A: 0.894

Q: What about the “Cholesterol-free media + simvastatin (0.04 μM)” value [2, 17] of the same compound?
A: 0.8627

Q: What about the “Complete Media” value [2, 18] of the same compound?
A: 1.013

Q: And the Difference [2, 19]?
A: 0.15

Q: Which results are given for `C[C@@H]1O[C@@H](OC[C@H]2O[C@@H](Oc3c(-c4ccc(OCCO)c(OCCO)c4)oc4cc(OCCO)cc(O)c4c3=O)[C@H](O)[C@@H](O)[C@@H]2O)[C@H](O)[C@H](O)[C@H]1O` [Troxerutin]?
A: Difference [1, 20]: −0.13; Cholesterol-free [1, 21]: 1.15; Complete [1, 18]: 1.021; Cholesterol-free media + simvastatin (0.04 μM) [2, 4]: 0.8482; Complete Media [2, 5]: 0.9455; Difference [2, 6]: 0.10

Q: For `CN1C(C(=O)Nc2ccccn2)=C(O)c2sc(Cl)cc2S1(=O)=O` [Lornoxicam], which Cholesterol-free [1, 3] is on record?
A: 1.174

Q: What about the Complete ([1]; NCI-H292 cells, complete media) of the same compound?
A: 0.811

Q: And the Difference [1, 22]?
A: −0.36

Q: What about the “Cholesterol-free media + simvastatin (0.04 μM)” value [2, 17] of the same compound?
A: 1.072

Q: What about the “Complete Media” value [2, 18] of the same compound?
A: 0.9888

Q: And the Difference [2, 12]?
A: −0.08

Q: How did the Cholesterol-free [1, 3] turn out when `CC(C)(C)NCC(O)COc1ccccc1C1CCCC1` (single isomer, unassigned; (+)) [(+)-Penbutolol] was run?
A: 1.349

Q: And the Complete ([1]; NCI-H292 cells, complete media)?
A: 1.014

Q: And the Difference [1, 22]?
A: −0.33

Q: What about the “Cholesterol-free media + simvastatin (0.04 μM)” value [2, 23] of the same compound?
A: 1.153

Q: And the “Complete Media” value [2, 24]?
A: 0.9518

Q: And the Difference [2, 12]?
A: −0.20

Q: How did the Difference [1, 7] turn out when `CC(C)(CO)c1cc2cc(NC(=O)C3(c4ccc5c(c4)OC(F)(F)O5)CC3)c(F)cc2n1C[C@@H](O)CO` [Tezacaftor] was run?
A: −0.63

Q: And the Cholesterol-free [1, 8]?
A: 1.488

Q: What about the Complete [1, 9] of the same compound?
A: 0.8597

Q: And the “Cholesterol-free media + simvastatin (0.04 μM)” value [2, 13]?
A: 1.227

Q: And the “Complete Media” value [2, 14]?
A: 1.187

Q: And the Difference [2, 15]?
A: −0.04

Q: Which results are given for `NCCC(O)(P(=O)(O)O)P(=O)(O)O` [Pamidronic acid]?
A: Difference [1, 20]: −0.18; Cholesterol-free [1, 21]: 0.8132; Complete [1, 18]: 0.6309; Cholesterol-free media + simvastatin (0.04 μM) [2, 13]: 1.09; Complete Media [2, 14]: 1.049; Difference [2, 15]: −0.04

Q: Which Cholesterol-free [1, 25] does the source give for `O=C(O)c1cccnc1Nc1cccc(C(F)(F)F)c1` [Niflumic acid] here?
A: 0.872

Q: What about the Complete [1, 26] of the same compound?
A: 1.486

Q: And the Difference [1, 27]?
A: 0.61

Q: What about the “Cholesterol-free media + simvastatin (0.04 μM)” value [2, 10] of the same compound?
A: 0.9955

Q: What about the “Complete Media” value [2, 11] of the same compound?
A: 0.2879

Q: And the Difference [2, 12]?
A: −0.71

Q: `COc1cccc(N2CCN(C3=Nc4c(F)cccc4[C@H](CC(=O)O)N3c3cc(C(F)(F)F)ccc3OC)CC2)c1` [Letermovir] was tested. Which Cholesterol-free [1, 3] did it give?
A: 1.5

Q: What about the Complete ([1]; NCI-H292 cells, complete media) of the same compound?
A: 1.08

Q: And the Difference [1, 22]?
A: −0.42

Q: And the “Cholesterol-free media + simvastatin (0.04 μM)” value [2, 13]?
A: 1.527

Q: What about the “Complete Media” value [2, 14] of the same compound?
A: 1.457

Q: What about the Difference [2, 15] of the same compound?
A: −0.07

Q: What does the source list for `COCCOC(=O)C1=C(C)NC(C)=C(C(=O)OC/C=C/c2ccccc2)C1c1cccc([N+](=O)[O-])c1` (stereo not drawn) [Cilnidipine]?
A: Cholesterol-free [1, 25]: 1.441; Complete [1, 26]: 1.574; Difference [1, 27]: 0.13; Cholesterol-free media + simvastatin (0.04 μM) [2, 23]: 0.9073; Complete Media [2, 24]: 0.7251; Difference [2, 12]: −0.18

Q: For Adenine (hemisulfate), which Cholesterol-free [1] is on record?
A: 1.657

Q: And the Complete [1]?
A: 0.9172

Q: And the Difference [1]?
A: −0.74

Q: And the “Cholesterol-free media + simvastatin (0.04 μM)” value [2]?
A: 1.503

Q: What about the “Complete Media” value [2] of the same compound?
A: 1.604

Q: And the Difference [2]?
A: 0.10

Q: `CCCOc1ccc2c(c1)CC[C@@H]1[C@@H]2CC[C@]2(C)[C@@H](OC)CC[C@@H]12` [Promestriene] was tested. Which Difference [1, 16] did it give?
A: −0.77

Q: And the Cholesterol-free [1, 8]?
A: 1.741

Q: What about the Complete [1, 9] of the same compound?
A: 0.9695

Q: And the “Cholesterol-free media + simvastatin (0.04 μM)” value ([2]; NCI-H292 cells, cholesterol-free media with simvastatin 0.04 μM, […])?
A: 0.8092

Q: What about the “Complete Media” value ([2]; NCI-H292 cells, complete media, […]) of the same compound?
A: 0.9277

Q: And the Difference [2, 19]?
A: 0.12
